Assay results as given in patent publication US20260097047A1, “Small molecule inhibitors of the ribosome biogenesis factor NVL2” (Board of Regents, The University of Texas System, priority 2023, published 2026).

Tested on: 60S biogenesis
Assay: SNAP-tag labeling of existing and newly synthesized eL36 (60S) and eS17 (40S)
Assay type: cell-based, human
Settings: 24 hours
Source text: The observed reduction in free 60S using polysome profiling could be the consequence of decreased 60S synthesis or accelerated 60S degradation, or a combination of the two. To distinguish between existing and newly synthesized 60S, we engineered HCT116 cells to express a C-terminal SNAP-tag on eL36, a ribosomal protein incorporated into the 60S subunit prior to NVL binding (39) or a control C-terminal SNAP-tag on a component of the small ribosomal subunit, eS17, to monitor 40S biogenesis (40). We first labeled existing eL36 or eS17 in cells with an Oregon green benzylguanine (green). Then, we treated cells for 24 hours with either vehicle or MM017 before adding a 647-SiR benzylguanine to label the pool of proteins synthesized over the 24-hour period and evaluated each polysome profile fraction for either existing or new proteins. […] MM017 treatment had no impact on the levels or fractionation pattern of existing eL36-SNAP.
Next, we examined the impact of MM017 on the subcellular localization of eL36-SNAP (60S) or eS17-SNAP (40S). As expected for mature ribosomes, existing eL36-SNAP was nearly completely cytoplasmic, and treatment with MM017 had no impact on its localization. In vehicle treated cells, newly synthesized eL36-SNAP was both nucleolar and cytoplasmic, reflecting its presence in pre-60S and mature ribosomes. […]

SMILES: COCCN1C(=O)c2ccccc2Sc2cc(NC(=O)c3ccoc3)ccc21 [MM017]
- effect on 40S subunits (eS17-SNAP): no impact on 40S subunits
- newly synthesized eL36-SNAP in polysome profile fractions: reduced in the 60S, 80S, and polysome fractions
